Assay results reported in the NIST ThermoML archive (doi:10.1021/je400510j).
Several values for one entry are separate records, joined by “and”; a condition that tells them apart may be missing. Identical values can stand only once.

Conditions: Liquid; for mass density: 101.33 kPa, Vibrating tube method; for vapor or sublimation pressure: Closed cell (Static) method

CO[PH](=O)[O-].Cn1cc[n+](C)c1 [1,3-dimethylimidazolium methyl phosphonate]
Conditions | mass density [kg/m3]
298.15 K | 1230.6
299.45 K | 1229.8
300.75 K | 1229.3
302.15 K | 1228.6
303.45 K | 1227.9
304.75 K | 1227.3
305.85 K | 1226.6
307.15 K | 1225.8
308.65 K | 1224.9
310.35 K | 1223.9
311.75 K | 1223.1
313.05 K | 1222.4
314.45 K | 1221.5
315.85 K | 1220.7
317.25 K | 1219.9
318.75 K | 1219.2

c1ccsc1 [thiophene]
Conditions | vapor or sublimation pressure
288.15 K | 6.78 kPa and 6.75 kPa
293.15 K | 8.7 kPa and 8.74 kPa
298.15 K | 10.37 kPa and 10.58 kPa
303.15 K | 12.98 kPa

Cc1ccccc1 [toluene]
Conditions | vapor or sublimation pressure
288.15 K | 2.42 kPa and 2.35 kPa
293.15 K | 3.18 kPa and 3.05 kPa
298.15 K | 3.84 kPa
303.15 K | 4.73 kPa

O [water]
Conditions | vapor or sublimation pressure [kPa]
283.15 K | 1.27
288.15 K | 1.73
293.15 K | 2.33
298.15 K | 3.2

c1ccncc1 [pyridine]
Conditions | vapor or sublimation pressure
288.15 K | 1.65 kPa and 1.72 kPa
293.15 K | 2.2 kPa and 2.25 kPa
298.15 K | 2.83 kPa and 2.85 kPa
303.15 K | 3.45 kPa
